Laboratory results reported in US20230150981A1, “N-HETEROARYLALKYL-2-(HETEROCYCLYL AND HETEROCYCLYLMETHYL) ACETAMIDE DERIVATIVES AS SSTR4 AGONISTS” (Takeda Pharmaceutical Compnay Limited, priority 2020, published 2023).

Assays:
SSTR4 [1] = target: T1, SSTR4 (Homo sapiens, UniProt P31391); assay: Inhibition of forskolin stimulated cAMP in CHO-K1 cells overexpressing SSTR4; format: cell-based; conditions: read-out: SSTR4 Activity pEC50 (converted)
T1 construct: host or cells: CHO-K1
Description: Inhibition of Forskolin Stimulated cAMP in Cells Overexpressing SSTR4
This cell-based assay measures the ability of compounds to inhibit forskolin stimulated cAMP in CHO-K1 cells overexpressing SSTR4. CHO-K1 cells overexpressing SSTR4 (CHO-SSTR4) are purchased from DiscoveRx (product code 95-0059C2). The CHO-SSTR4 cells are maintained in F12K media with 10% Fetal Bovine Serum (Hyclone), 1% Pen/Strep (Life Technologies), and 800 μg/mL G418 (Life Technologies). To perform the assay, 3000 cells are plated per well in white 384-well plate (Corning 3570) in 50 μL complete media and the cells are allowed to attach for 16 hours in a 37° C., 5% CO2 incubator. The next day, the culture media is removed from the cells and the cells are washed (added then removed) with Krebs Ringer Buffer (ZenBio, KRB-1000 mL). Test compounds are suspended in DMSO and diluted in stimulation buffer: Krebs Ringer Buffer plus 0.5% BSA (Roche), 300 μM IBMX (Sigma), and 350 nM forskolin (Sigma). The cells are incubated in 10 μL compound/stimulation buffer for 30 minutes at room temperature. Cellular cAMP levels are detected with a HTRF LANCE Ultra cAMP kit (Perkin Elmer, catalog number TRF0264).
The assay is performed in accordance with the manufacturer's instructions. Five μL of diluted Eu-W8044 labeled streptavidin (dilution: 1:50 in cAMP Detection Buffer) is added to each well. Then 5 μL of diluted biotin cAMP (dilution: 1:150 in cAMP Detection Buffer) is added to each well. The plates are covered and allowed to incubate for 60 minutes at room temperature on a shaker. HTRF (665 nm/615 nm) is read on a Perkin Elmer ENVISION plate reader. The pEC50 values are generated using Activity Base for Screening Data Management.

SSTR4 [2] = target: T1, SSTR4; assay: SSTR4 I-125 somatostatin competition binding assay (CHO-K1 membranes); conditions: competition with I-125 somatostatin, membranes from CHO-K1 overexpressing SSTR4; read-out: SSTR4 Binding pIC50 (converted)
Description: SSTR4 I-125 Somatostatin Competition Binding Assay
Membranes from CHO-K1 cells overexpressing SSTR4 are purchased from Perkin Elmer (catalog number ES-524-M400UA). Test compounds are suspended in DMSO and then diluted in assay buffer (25 mM HEPES pH 7.4, 10 mM MgCl2, 1 mM CaCl2), 0.5% BSA) plus 0.2 nM I-125 labeled somatostatin (Perkin Elmer catalog number NEX389). Fifty μL of compound/I-125 somatostatin in assay buffer are added per well to 96-well poly-propylene plate. Then 1 μg of SSTR4 membranes in 50 μL assay buffer are added per well. The Plate is incubated for 60 minutes at room temperature. FilterMat A filters (Perkin Elmer catalog number 1450-421) are pre-soaked in 0.5% PEI (Sigma catalog number P3143). The contents of the assay plate are transferred to filters with a TomTech harvester and washed 5 times with 20 mM HEPES, 100 mM NaCl. The filters are dried in a microwave oven then transferred to sample bag containing a scintillator sheet (Perkin Elmer catalog number 1450-441). The scintillator sheets are melted to filters using a heat block. The filters are then read in a MicroBeta scintillation counter. Binding Ki curves are generated using Activity Base for Screening Data Management and the results are reported as pIC50.

SSTR1 = target: T2, SSTR1 (Homo sapiens, UniProt P30872); assay: SSTR1 I-125 somatostatin competition binding assay for selectivity versus SSTR1 (CHO-K1 membranes); conditions: competition with I-125 somatostatin, membranes from CHO-K1 overexpressing SSTR1; read-out: SSTR1 Binding pIC50 (converted)
T2 construct: purchased Perkin Elmer ES-520-M400UA; host or cells: CHO-K1 membranes
T2 sequence (P30872 whole entry): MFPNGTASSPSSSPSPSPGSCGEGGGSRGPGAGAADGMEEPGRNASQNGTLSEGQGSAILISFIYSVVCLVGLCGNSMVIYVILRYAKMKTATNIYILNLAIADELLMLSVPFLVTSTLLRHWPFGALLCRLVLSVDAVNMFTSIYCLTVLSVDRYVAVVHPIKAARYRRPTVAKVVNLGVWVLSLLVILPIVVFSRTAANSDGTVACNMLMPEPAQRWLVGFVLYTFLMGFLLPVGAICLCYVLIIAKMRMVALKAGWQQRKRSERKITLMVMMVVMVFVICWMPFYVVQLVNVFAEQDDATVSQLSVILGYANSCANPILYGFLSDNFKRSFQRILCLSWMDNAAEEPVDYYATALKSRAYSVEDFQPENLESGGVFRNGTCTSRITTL
Description: SSTR1 I-125 Somatostatin Competition Binding Assay for Selectivity Versus SSTR1
Membranes from CHO-K1 cells overexpressing SSTR1 are purchased from Perkin Elmer (catalog number ES-520-M400UA). Test compounds are suspended in DMSO and then diluted in assay buffer (25 mM HEPES pH 7.4, 10 mM MgCl2, 1 mM CaCl2), 0.5% BSA) plus 0.4 nM I-125 labeled somatostatin (Perkin Elmer catalog number NEX389). Fifty μL of compound/I-125 somatostatin in assay buffer are added per well to 96-well poly-propylene plate. Then 10 μg of SSTR1 membranes in 50 μL assay buffer are added per well. The plate is incubated for 60 minutes at room temperature. FilterMat A filters (Perkin Elmer catalog number 1450-421) are pre-soaked in 0.5% PEI (Sigma catalog number P3143). The contents of the assay plate are transferred to filters with a TomTech harvester and washed 5 times with 20 mM HEPES, 100 mM NaCl. The filters are dried in a microwave oven then transferred to sample bag containing a scintillator sheet (Perkin Elmer catalog number 1450-441). The scintillator sheets are melted to the filters using a heat block. The filters are then read in a MicroBeta scintillation counter. Binding Ki curves are generated using Activity Base for Screening Data Management and the results are reported as pIC50.

T1 sequence (P31391 whole entry): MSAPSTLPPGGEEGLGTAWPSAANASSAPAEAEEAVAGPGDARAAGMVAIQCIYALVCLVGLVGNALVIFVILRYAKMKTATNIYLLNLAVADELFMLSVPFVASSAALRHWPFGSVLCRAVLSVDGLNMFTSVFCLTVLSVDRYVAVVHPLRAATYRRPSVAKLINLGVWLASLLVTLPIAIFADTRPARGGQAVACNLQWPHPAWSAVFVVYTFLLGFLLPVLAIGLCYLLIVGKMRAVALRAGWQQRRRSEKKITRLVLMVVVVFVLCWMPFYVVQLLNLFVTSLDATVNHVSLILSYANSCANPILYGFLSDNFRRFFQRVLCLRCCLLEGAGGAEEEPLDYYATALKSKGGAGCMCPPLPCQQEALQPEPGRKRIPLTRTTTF

| Structure (SMILES) | EC50 (SSTR4 [1]) [nM] | IC50 (SSTR4 [2]) [nM] | IC50 (SSTR1) [nM] |
| --- | --- | --- | --- |
| COc1ccccc1[C@@H](NC(=O)[C@H](CN1CCC1)C(C)C)C(F)F [Example 188, (S)-2-(azetidin-1-ylmethyl)-N-((R)-2,2-difluoro-1-(2-methoxyphenyl)ethyl)-3-methylbutanamide] | 0.501 | 2 | 126 |
| CC[C@@H](CN1CCC1)C(=O)NC(C)(C)c1ccc(F)cc1 (single isomer, unassigned) [Example 183] | 50.1 | 501 | 20000 |
| Cc1cccnc1OCC1(NC(=O)C(C)C2CCCN2C)CC1 (stereo not drawn) [Example 71, N-(1-(((3-methylpyridin-2-yl)oxy)methyl)cyclopropyl)-2-(1-methylpyrrolidin-2-yl)propanamide] | 31.6 | 251 | 25100 |
| C[C@@H](CN1CCC1)C(=O)NC(C)(C)c1ccc(Cl)cc1 (single isomer, unassigned) [Example 155] | 2.51 | 39.8 | 3160 |
| Cc1cccc2c(C(C)(C)NC(=O)C[C@@H]3CCCN3C)nccc12 [Example 18, (S)-N-(2-(5-methylisoquinolin-1-yl)propan-2-yl)-2-(1-methylpyrrolidin-2-yl)acetamide] | 7.94 | 100 | 7940 |
| Cc1cccnc1OCC1(NC(=O)[C@H](C)[C@@H]2CCCN2C)CC1 (single isomer, unassigned) [Example 127] | 7.94 | 126 | 7940 |
| COc1c(Cl)cccc1C(C)(C)NC(=O)C[C@@H]1CCCN1C [Example 112, (S)-N-(2-(3-chloro-2-methoxyphenyl)propan-2-yl)-2-(1-methylpyrrolidin-2-yl)acetamide] | 79.4 | 501 | > 50100 |
| COc1c(F)cccc1C(C)(C)NC(=O)[C@H](C)CN1CCC1 (single isomer, unassigned) [Example 171] | 2 | 15.8 | 3980 |
| CCN1CCCC1CC(=O)NC(C)(C)COc1ncccc1C (stereo not drawn) [Example 62, 2-(1-ethylpyrrolidin-2-yl)-N-(2-methyl-1-((3-methylpyridin-2-yl)oxy)propan-2-yl)acetamide] | 25.1 | 251 | 25100 |
| Cc1cccc2c(C(C)(C)NC(=O)CC3CCCCN3C)nccc12 (stereo not drawn) [Example 7, N-(2-(5-methylisoquinolin-1-yl)propan-2-yl)-2-(1-methylpiperidin-2-yl)acetamide] | 3.98 | 79.4 | 5010 |
| COc1ccccc1C(C)(C)NC(=O)[C@H](C)CN1CCCC1 (single isomer, unassigned) [Example 75] | 2.51 | 31.6 | 10000 |
| CC(C)(COc1ncccc1C(F)F)NC(=O)CC12CCCN1CCC2 [Example 78, N-(1-((3-(difluoromethyl)pyridin-2-yl)oxy)-2-methylpropan-2-yl)-2-(tetrahydro-1H-pyrrolizin-7a(5H)-yl)acetamide] | 251 | 10000 | > 50100 |
| CC(CN1CCC1)C(=O)NC(C)(C)c1ccccc1Cl (stereo not drawn) [Example 132, 3-(azetidin-1-yl)-N-(2-(2-chlorophenyl)propan-2-yl)-2-methylpropanamide] | 7.94 | 79.4 | 20000 |
| C[C@@H](CN1CCC1)C(=O)NC(C)(C)c1cccc(F)c1 (single isomer, unassigned) [Example 153] | 3.98 | 79.4 | 6310 |
| CN1CCCCC1CC(=O)NC(C)(C)c1cc(Cl)ccc1Cl (stereo not drawn) [Example 45, N-(2-(2,5-dichlorophenyl)propan-2-yl)-2-(1-methylpiperidin-2-yl)acetamide] | 25.1 | 158 | 7940 |
| Cc1cccc2c(C(C)(C)NC(=O)C[C@@H]3CCCCN3C)nccc12 (single isomer, unassigned) [Example 9] | 12.6 | 126 | 7940 |
| COc1c(F)cccc1C(C)(C)NC(=O)C(C)CN1CCC1 (stereo not drawn) [Example 170, 3-(azetidin-1-yl)-N-(2-(3-fluoro-2-methoxyphenyl)propan-2-yl)-2-methylpropanamide] | 0.794 | 25.1 | 5010 |
| CN1CCCC[C@@H]1CC(=O)NC(C)(C)c1nccc2occc12 (single isomer, unassigned) [Example 14] | 6.31 | 79.4 | 25100 |
| CCN1CCCC1CC(=O)NC1(COc2ncccc2C)CC1 (stereo not drawn) [Example 63, 2-(1-ethylpyrrolidin-2-yl)-N-(1-(((3-methylpyridin-2-yl)oxy)methyl)cyclopropyl)acetamide] | 63.1 | 1580 | – |
| COc1c(C)cccc1C(C)(C)NC(=O)[C@@H](C)CN1CCC1 (single isomer, unassigned) [Example 147] | 63.1 | 1580 | – |
| CN1CCCC[C@H]1CC(=O)NC(C)(C)c1nccc2occc12 (single isomer, unassigned) [Example 15] | 25.1 | 316 | – |
| CN1CCCCC1CC(=O)NC(C)(C)c1nccc2occc12 (stereo not drawn) [Example 13, N-(2-(furo[3,2-c]pyridin-4-yl)propan-2-yl)-2-(1-methylpiperidin-2-yl)acetamide] | 20 | 126 | – |
| CC(C)(COc1ncccc1C(F)(F)F)NC(=O)C[C@@H]1CCCN1C1CC1 [Example 53, (S)-2-(1-cyclopropylpyrrolidin-2-yl)-N-(2-methyl-1-((3-(trifluoromethyl)pyridin-2-yl)oxy)propan-2-yl)acetamide] | 63.1 | – | – |
| Cc1cccnc1OCC1(NC(=O)C[C@@H]2CCCN2C)CCCC1 [Example 56, (S)-N-(1-(((3-methylpyridin-2-yl)oxy)methyl)cyclopentyl)-2-(1-methylpyrrolidin-2-yl)acetamide] | 200 | – | – |
| Cc1c(F)cccc1C(C)(C)NC(=O)C[C@H]1CCCN1C [Example 90, (R)-N-(2-(3-fluoro-2-methylphenyl)propan-2-yl)-2-(1-methylpyrrolidin-2-yl)acetamide] | 63.1 | – | – |
| CCOc1cccnc1OCC(C)(C)NC(=O)C[C@H]1CCCN1C [Example 107, (R)-N-(1-((3-ethoxypyridin-2-yl)oxy)-2-methylpropan-2-yl)-2-(1-methylpyrrolidin-2-yl)acetamide] | 200 | – | – |
| C[C@H](NC(=O)C[C@H]1CCCN1C)c1ccc(Cl)cc1 [Example 36, N-((S)-1-(4-chlorophenyl)ethyl)-2-((R)-1-methylpyrrolidin-2-yl)acetamide] | 501 | – | – |
| COc1c(F)cccc1C(C)(C)NC(=O)[C@@H](C)CN1CCC1 (single isomer, unassigned) [Example 172] | 251 | – | – |
| CN1CCC[C@H]1CC(=O)NC(C)(C)COc1ncccc1C(F)F [Example 85] | 200 | – | – |
